In PMC10675732 (Viruses, 2023):
“And” between values parts separate entries of the source, which are not always exact repeats. Equal values may be shown once. Read-outs that look alike come from different tables or passages of the source. Marks after values point to notes of the source that are not given here.

Columns and labels:
[1] = system: Parent virus (A/PR/8/34 (H1N1)); assay: microbe, parasite or virus in culture; type: cell-based; conditions: Influenza A virus, plaque reduction assay
[2] = system: B/Hong Kong/5/72; type: in vivo, influenza B virus
[3] = system: A/PR/8/34 (H1N1); type: in vivo, influenza A virus
[4] = in vivo; conditions: mouse, sc
[5] = cited from earlier work
[6] = human, in vivo, po; cited from earlier work
[7] = mouse, in vivo, po; cited from earlier work
[8] = system: influenza B viruses; conditions: range over influenza B viruses, previous study; cited from earlier work
[9] = system: B/Hong Kong/5/72; conditions: viral yield; cited from earlier work
[10] = system: A/PR/8/34 (H1N1); conditions: viral yield; cited from earlier work
[11] = system: influenza A viruses; conditions: range over influenza A viruses, previous study; cited from earlier work
[12] = system: seasonal influenza A viruses; conditions: cited from earlier work

## NC(=O)c1nc(F)c[nH]c1=O [Favipiravir]
[1]
  EC50: 22300 ± 1010 nM

## CCOC(=O)C1=C[C@@H](OC(CC)CC)[C@H](NC(C)=O)[C@@H](N)C1 [oseltamivir phosphate]
[2]; in vivo
  Body weight loss induced by infection: suppressed body weight loss
[2]; n = 10
  Mice survived: 70%
[3]; in vivo
  Body weight loss induced by infection: suppressed body weight loss
  Virus titres in the lungs compared to the vehicle-treated group: significantly low
[3]; n = 10
  Mice survived: 100%

## O=C1c2c(O)c(=O)ccn2N([C@@H]2c3ccccc3SCc3c2ccc(F)c3F)[C@@H]2COCCN12 [baloxavir acid]
[4]; female, BALB/c, 3.2 mg/kg
  half-life: 74.2 h
[4]; female, BALB/c, 6.4 mg/kg
  half-life: 84.2 h
[4]; 10 mg/kg
  half-life: 49.9 h
[5]; 10 mg/kg s.c. single dose, 2 h after dosing
  Plasma concentration: 0.044 µg/mL
[5]; 10 mg/kg s.c. single dose, 4 h after dosing
  Plasma concentration: 0.0472 µg/mL
[5]; 10 mg/kg s.c. single dose, 8 h after dosing
  Plasma concentration: 0.0344 µg/mL
[5]; 10 mg/kg s.c. single dose, 48 h after dosing
  Plasma concentration: 0.0178 µg/mL
[5]; 10 mg/kg s.c. single dose, 120 h after dosing
  Plasma concentration: 0.00679 µg/mL
[5]; 10 mg/kg s.c. single dose, 168 h after dosing
  Plasma concentration: 0.00651 µg/mL
[5]; 10 mg/kg s.c. single dose, 216 h after dosing
  Plasma concentration: 0.00597 µg/mL
[5]; mouse, in vivo
  Plasma concentration: 0.0261 µg/mL
[6]
  Half-life of baloxavir acid in humans: 49 to 91 h
[7]
  Half-life of baloxavir acid in plasma: 2.2 to 3.1 h
[8]
  EC90: 2.2 to 6.5 nM
[1]
  EC50: 1.69 ± 0.57 nM
[9]
  EC90: 2.2 nM
[2]; in vivo
  Body weight loss induced by infection: suppressed body weight loss
  Mortality due to infection: completely eliminated mortality
  Survival: all mice survived
  Survival Rate: 50 * % and 100 ** % and 80 * % and 50%
  Survival rate: ≤ 50%
  Survival vs vehicle: significantly improved survival
  Virus titres in the lungs compared to the oseltamivir phosphate group: significantly lower
[2]; in vivo, sc, 10 mg/kg
  Virus titres in the lungs compared to the vehicle-treated group: significantly low
[10]
  EC90: 0.79 nM
[11]
  EC90: 0.46 to 0.98 nM
[3]; in vivo
  Body weight loss induced by infection: suppressed body weight loss
  Mortality: complete elimination of mortality
  Mortality due to infection: completely eliminated mortality
  Survival: all mice survived
  Survival Rate: 100 ** %
  Virus titres in the lungs compared to the oseltamivir phosphate group: significantly lower
  Virus titres in the lungs compared to the vehicle-treated group: significantly low
[12]
  mean EC50 against seasonal influenza A viruses relative to influenza B viruses: five to ten times lower
